Measured values from patent US20130209543A1, “ENHANCED TREATMENT REGIMENS USING MTOR INHIBITORS” (Intellikine LLC, priority 2011, published 2013).
Like-named read-outs stand apart in the source and are kept apart here.

Legend:
mTOR = molecular target: T1, mTOR (Homo sapiens, UniProt P42345); experiment: mTOR kinase inhibition assay; assay type: biochemical
T1 construct: purchased Invitrogen
Protocol: The compounds described herein and any other mTorC1/mTorC2 inhibitors known in the art can be tested against recombinant mTOR (Invitrogen) in an assay containing 50 mM HEPES, pH 7.5, 1 mM EGTA, 10 mM MgCl2, 2.5 mM, 0.01% Tween, 10 μM ATP (2.5 μCi of μ-32P-ATP), and 3 mg/mL BSA. Rat recombinant PHAS-1/4EBP1 (Calbiochem; 2 mg/mL) is used as a substrate. Reactions are terminated by spotting onto nitrocellulose, which is washed with 1M NaCl/1% phosphoric acid (approximately 6 times, 5-10 minutes each). Sheets are dried and the transferred radioactivity quantitated by phosphorimaging.
For instance, one can use Invitrogen's LanthaScreen™ Kinase assay to test the inhibitors of mTOR disclosed herein. This assay is a time resolved FRET platform that measures the phosphorylation of GFP labeled 4EBP1 by mTOR kinase. The kinase reaction is performed in a white 384 well microtitre plate. The total reaction volume is 20 μl per well and the reaction buffer composition is 50 mM HEPES pH7.5, 0.01% Polysorbate 20, 1 mM EGTA, 10 mM MnCl2, and 2 mM DTT. In the first step, each well receives 2 ul of test compound in 20% dimethylsulphoxide resulting in a 2% DMSO final concentration. Next, 8ul of mTOR diluted in reaction buffer is added per well for a 60 ng/ml final concentration. To start the reaction, 10 ul of an ATP/GFP-4EBP1 mixture (diluted in reaction buffer) is added per well for a final concentration of 10 μM ATP and 0.5 μM GFP-4EBP1. The plate is sealed and incubated for 1 hour at room temperature. […] The plate is sealed, incubated for 1 hour at room temperature, and then read on a plate reader set up for LanthaScreen™ TR-FRET. Data is analyzed and IC50s are generated using GraphPad Prism 5.

PI3K α = PI3K α (Homo sapiens, UniProt P42336); experiment: PI3K α kinase assay; assay type: biochemical
PI3K β = PI3K β (Homo sapiens, UniProt P42338); experiment: PI3K β kinase assay; assay type: biochemical
PI3K γ = PI3K γ (Homo sapiens, UniProt P48736); experiment: PI3K γ kinase assay; assay type: biochemical
PI3K δ = PI3K δ (Homo sapiens, UniProt O00329); experiment: PI3K δ kinase assay; assay type: biochemical
PC3 = PC3 proliferation; assay type: cell-based; conditions: Homo sapiens, PC-3; for EC50: Table 1; for IC50: Table 2

PI3K δ, sequence (O00329 whole entry, species assumed): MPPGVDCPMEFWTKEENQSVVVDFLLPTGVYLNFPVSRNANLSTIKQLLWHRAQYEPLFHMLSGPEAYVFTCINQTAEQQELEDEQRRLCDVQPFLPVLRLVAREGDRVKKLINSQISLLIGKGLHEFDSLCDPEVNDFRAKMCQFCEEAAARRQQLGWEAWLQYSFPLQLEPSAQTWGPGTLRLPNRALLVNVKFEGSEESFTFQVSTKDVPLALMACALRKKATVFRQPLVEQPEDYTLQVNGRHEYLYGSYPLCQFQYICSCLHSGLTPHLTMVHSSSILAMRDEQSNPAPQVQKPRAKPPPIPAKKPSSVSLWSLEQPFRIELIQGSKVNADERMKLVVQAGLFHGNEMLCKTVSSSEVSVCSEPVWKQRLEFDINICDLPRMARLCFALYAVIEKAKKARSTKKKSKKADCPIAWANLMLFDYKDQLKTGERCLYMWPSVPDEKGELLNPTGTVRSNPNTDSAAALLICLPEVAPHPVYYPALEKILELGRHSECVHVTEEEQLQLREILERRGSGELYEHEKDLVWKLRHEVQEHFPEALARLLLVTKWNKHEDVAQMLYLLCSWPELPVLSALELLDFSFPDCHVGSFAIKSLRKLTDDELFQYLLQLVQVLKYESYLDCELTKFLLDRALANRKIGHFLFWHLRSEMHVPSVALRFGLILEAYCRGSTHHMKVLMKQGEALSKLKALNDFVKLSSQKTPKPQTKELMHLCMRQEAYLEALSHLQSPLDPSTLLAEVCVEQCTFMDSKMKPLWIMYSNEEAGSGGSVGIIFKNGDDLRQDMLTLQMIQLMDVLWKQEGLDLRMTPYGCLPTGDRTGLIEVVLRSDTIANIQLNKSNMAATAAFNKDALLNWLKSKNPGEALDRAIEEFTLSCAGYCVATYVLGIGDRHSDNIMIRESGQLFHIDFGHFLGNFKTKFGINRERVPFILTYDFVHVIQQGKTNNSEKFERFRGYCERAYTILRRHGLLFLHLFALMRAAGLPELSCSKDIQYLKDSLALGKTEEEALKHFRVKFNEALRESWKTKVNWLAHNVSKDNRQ
PI3K δ, sequence (P27986 whole entry partner, species assumed): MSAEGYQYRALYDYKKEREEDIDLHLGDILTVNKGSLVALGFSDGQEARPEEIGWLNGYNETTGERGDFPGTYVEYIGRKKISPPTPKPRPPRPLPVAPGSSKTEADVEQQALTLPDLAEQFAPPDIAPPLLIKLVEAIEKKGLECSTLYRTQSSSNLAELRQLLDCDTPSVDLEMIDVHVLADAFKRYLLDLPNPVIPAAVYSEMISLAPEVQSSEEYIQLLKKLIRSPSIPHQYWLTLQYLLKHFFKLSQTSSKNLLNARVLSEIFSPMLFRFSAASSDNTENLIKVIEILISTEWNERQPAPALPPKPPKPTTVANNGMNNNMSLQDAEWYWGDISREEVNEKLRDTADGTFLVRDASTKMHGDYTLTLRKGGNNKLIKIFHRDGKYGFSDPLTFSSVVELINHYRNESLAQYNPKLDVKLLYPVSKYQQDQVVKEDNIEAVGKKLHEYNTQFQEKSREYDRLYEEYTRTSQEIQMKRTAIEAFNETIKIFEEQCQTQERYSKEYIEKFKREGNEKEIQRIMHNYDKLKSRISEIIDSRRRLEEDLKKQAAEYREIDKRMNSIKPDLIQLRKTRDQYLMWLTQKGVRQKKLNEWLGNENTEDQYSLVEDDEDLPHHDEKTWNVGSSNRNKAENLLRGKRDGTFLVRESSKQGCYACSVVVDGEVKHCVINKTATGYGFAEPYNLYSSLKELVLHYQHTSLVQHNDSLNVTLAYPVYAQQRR
PI3K γ, sequence (P48736 whole entry, species assumed): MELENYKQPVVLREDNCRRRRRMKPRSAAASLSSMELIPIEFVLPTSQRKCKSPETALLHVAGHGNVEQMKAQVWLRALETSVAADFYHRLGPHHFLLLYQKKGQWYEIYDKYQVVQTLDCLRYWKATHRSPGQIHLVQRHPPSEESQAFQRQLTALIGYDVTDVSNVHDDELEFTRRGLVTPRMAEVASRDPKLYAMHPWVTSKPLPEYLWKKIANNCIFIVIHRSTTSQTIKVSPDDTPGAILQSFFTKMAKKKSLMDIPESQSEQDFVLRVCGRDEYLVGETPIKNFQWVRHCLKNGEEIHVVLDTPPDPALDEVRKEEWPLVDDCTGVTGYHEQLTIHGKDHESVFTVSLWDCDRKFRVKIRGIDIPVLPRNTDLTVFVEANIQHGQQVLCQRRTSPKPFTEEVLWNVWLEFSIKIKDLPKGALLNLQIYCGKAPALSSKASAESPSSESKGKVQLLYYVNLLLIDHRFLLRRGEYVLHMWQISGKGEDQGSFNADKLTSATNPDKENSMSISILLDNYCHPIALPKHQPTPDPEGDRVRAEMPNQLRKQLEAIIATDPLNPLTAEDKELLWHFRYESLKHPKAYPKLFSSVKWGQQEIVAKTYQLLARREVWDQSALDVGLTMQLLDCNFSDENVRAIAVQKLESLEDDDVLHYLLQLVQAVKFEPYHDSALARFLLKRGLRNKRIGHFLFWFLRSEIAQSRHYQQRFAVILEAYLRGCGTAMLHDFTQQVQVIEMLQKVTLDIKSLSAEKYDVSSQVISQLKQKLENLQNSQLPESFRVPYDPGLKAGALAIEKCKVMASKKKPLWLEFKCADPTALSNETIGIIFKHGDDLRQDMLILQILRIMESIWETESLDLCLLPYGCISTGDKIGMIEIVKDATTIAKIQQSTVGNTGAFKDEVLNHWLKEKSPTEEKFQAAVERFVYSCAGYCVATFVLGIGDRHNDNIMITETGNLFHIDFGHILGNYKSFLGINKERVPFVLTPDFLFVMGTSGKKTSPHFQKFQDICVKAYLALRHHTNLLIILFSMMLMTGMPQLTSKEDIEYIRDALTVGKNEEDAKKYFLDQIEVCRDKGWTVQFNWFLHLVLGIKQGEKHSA
PI3K α, sequence (P42336 whole entry, species assumed): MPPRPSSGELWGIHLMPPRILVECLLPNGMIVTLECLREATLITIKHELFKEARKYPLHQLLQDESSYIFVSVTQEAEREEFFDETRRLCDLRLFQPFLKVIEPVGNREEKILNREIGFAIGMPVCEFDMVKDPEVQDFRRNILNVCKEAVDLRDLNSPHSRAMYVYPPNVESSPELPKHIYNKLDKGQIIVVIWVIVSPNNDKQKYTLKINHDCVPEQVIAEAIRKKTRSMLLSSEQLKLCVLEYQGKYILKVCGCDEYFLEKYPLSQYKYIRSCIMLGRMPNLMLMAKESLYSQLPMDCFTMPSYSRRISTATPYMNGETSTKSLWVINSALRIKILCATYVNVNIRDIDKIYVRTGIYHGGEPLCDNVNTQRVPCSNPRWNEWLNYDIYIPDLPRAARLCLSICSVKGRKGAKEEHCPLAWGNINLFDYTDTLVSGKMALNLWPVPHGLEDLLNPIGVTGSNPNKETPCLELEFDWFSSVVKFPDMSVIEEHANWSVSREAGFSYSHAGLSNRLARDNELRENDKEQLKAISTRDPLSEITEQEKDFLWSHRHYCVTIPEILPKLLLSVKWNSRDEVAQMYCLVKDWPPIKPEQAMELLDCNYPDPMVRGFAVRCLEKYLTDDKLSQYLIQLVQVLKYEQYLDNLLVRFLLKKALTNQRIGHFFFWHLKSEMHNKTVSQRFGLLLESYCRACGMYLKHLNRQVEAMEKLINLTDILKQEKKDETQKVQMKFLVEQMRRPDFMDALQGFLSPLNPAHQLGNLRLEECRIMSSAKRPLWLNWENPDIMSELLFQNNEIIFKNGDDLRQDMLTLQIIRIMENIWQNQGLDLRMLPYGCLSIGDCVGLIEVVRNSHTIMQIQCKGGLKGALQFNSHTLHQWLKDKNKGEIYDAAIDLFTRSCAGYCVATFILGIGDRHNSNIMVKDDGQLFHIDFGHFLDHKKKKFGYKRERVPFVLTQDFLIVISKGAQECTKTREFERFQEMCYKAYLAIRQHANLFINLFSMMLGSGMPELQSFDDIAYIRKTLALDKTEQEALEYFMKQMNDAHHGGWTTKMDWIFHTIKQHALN
PI3K α, sequence (P27986 whole entry partner, species assumed): as the sequence (P27986 whole entry partner, species assumed) above
PI3K β, sequence (P42338 whole entry, species assumed): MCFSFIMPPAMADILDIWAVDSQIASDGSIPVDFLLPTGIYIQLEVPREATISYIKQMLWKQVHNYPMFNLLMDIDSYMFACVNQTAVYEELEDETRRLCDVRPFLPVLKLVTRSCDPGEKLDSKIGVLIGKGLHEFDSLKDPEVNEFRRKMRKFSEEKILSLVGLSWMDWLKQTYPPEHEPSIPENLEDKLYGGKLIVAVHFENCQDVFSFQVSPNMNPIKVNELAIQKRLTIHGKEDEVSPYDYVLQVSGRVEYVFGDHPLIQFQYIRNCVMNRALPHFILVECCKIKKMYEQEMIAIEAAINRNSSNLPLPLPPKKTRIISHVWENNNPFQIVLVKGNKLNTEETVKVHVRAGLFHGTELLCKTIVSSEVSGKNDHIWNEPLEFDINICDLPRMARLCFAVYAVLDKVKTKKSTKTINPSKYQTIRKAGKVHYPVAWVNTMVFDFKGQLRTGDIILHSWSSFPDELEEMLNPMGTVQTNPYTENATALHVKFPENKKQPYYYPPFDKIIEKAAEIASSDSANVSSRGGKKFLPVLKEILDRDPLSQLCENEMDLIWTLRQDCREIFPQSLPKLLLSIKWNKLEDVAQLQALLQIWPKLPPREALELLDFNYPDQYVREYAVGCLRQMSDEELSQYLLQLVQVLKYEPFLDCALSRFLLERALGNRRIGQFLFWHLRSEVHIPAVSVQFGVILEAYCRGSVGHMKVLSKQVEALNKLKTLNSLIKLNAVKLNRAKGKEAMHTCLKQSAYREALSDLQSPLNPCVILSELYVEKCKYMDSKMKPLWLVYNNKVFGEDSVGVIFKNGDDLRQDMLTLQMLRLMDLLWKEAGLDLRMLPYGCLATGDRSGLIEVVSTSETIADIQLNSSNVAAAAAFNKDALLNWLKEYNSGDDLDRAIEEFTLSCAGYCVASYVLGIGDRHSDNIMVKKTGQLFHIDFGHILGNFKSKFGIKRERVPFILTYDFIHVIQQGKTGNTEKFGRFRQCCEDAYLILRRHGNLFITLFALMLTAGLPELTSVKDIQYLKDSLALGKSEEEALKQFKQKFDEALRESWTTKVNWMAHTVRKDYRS
PI3K β, sequence (P27986 whole entry partner, species assumed): as the sequence (P27986 whole entry partner, species assumed) above

SMILES | IC50 (mTOR; Table 1, read-out: mTOR IC50) [nM] | IC50 (PI3K α; Table 1) [nM] | IC50 (PI3K β; Table 1) [nM] | IC50 (PI3K γ; Table 1) [nM] | IC50 (PI3K δ; Table 1) [nM] | EC50 (PC3) [nM] | IC50 (mTOR; Table 2, read-out: mTORC IC50) [nM] | IC50 (PI3K α; Table 2) [nM] | IC50 (PI3K γ; Table 2) [nM] | IC50 (PI3K δ; Table 2) [nM] | IC50 (PC3) [nM] | IC50 (PI3K β; Table 2) [nM] | IC50 (PI3K δ) [nM]
CC(C)n1nc(-c2ccc3nc(N)oc3c2)c2c(N)ncnc21 [Compound 4] | < 1000 | < 10000 | < 10000 | < 1000 | < 1000 | < 10000 | – | – | – | – | – | – | –
CC(=O)N1CCC(n2nc(-c3ccc4oc(N)nc4c3)c3c(N)ncnc32)CC1 [Compound 7] | < 100 | < 1000 | < 10000 | < 10000 | < 1000 | < 10000 | – | – | – | – | – | – | –
Nc1ncnc2c1c(-c1cc3cccc(O)c3[nH]1)nn2C1CCCC1 [Compound 36] | – | – | – | – | – | – | 5 to 10 | > 500 | 50 to 100 | 100 to 500 | 50 to 100 | – | –
Nc1nc2cc(-c3cn(C4CCOCC4)c4ncnc(N)c34)ccc2o1 [Compound 9] | < 100 | < 10000 | > 10000 | – | – | < 100 | – | – | – | – | – | – | –
Nc1nc2cc(-c3nn(C4CCOCC4)c4ncnc(N)c34)ccc2o1 [Compound 5] | < 100 | < 1000 | < 10000 | < 100 | < 1000 | < 100 | – | – | – | – | – | – | –
CC(C)n1nc(-c2cc3ccc(C(N)=O)cc3[nH]2)c2c(N)ncnc21 [Compound 25] | – | – | – | – | – | – | 100 to 500 | > 500 | – | – | > 500 | – | –
CC(C)n1nc(-c2cc3cc(O)cc(F)c3[nH]2)c2c(N)ncnc21 [Compound 16] | – | – | – | – | – | – | < 5 | > 500 | 100 to 500 | 50 to 100 | 100 to 500 | > 500 | –
CC(=O)Nc1nc2cc(-c3nn(C(C)C)c4ncnc(N)c34)ccc2o1 [Compound 2] | < 100 | < 10000 | > 10000 | < 1000 | < 1000 | < 1000 | – | – | – | – | – | – | –
CC(C)n1nc(-c2cc3ccc(C#N)cc3[nH]2)c2c(N)ncnc21 [Compound 24] | – | – | – | – | – | – | > 500 | > 500 | – | – | > 500 | – | –
CC(C)n1nc(-c2cc3cccc(Cl)c3[nH]2)c2c(N)ncnc21 [Compound 50] | – | – | – | – | – | – | 25 to 50 | > 500 | 100 to 500 | 100 to 500 | – | > 500 | –
CC(=O)N1CCC(n2nc(-c3cc4c(Cl)ccc(O)c4[nH]3)c3c(N)ncnc32)CC1 [Compound 69] | – | – | – | – | – | – | < 5 | > 500 | > 500 | 100 to 500 | – | > 500 | –
Nc1ncnc2c1c(-c1cc3cc(O)ccc3[nH]1)nn2C1CCCCC1 [Compound 26] | – | – | – | – | – | – | 5 to 10 | > 500 | 100 to 500 | 50 to 100 | 100 to 500 | > 500 | –
CC(C)N1CCC(n2nc(-c3cc4cccc(O)c4[nH]3)c3c(N)ncnc32)CC1 [Compound 64] | – | – | – | – | – | – | 10 to 25 | > 500 | 100 to 500 | 100 to 500 | – | > 500 | –
CC(=O)N1CCC(n2nc(-c3cc4ccc(O)cc4[nH]3)c3c(N)ncnc32)CC1 [Compound 65] | – | – | – | – | – | – | 5 to 10 | 25 to 50 | 10 to 25 | 10 to 25 | – | > 500 | –
CC(C)n1nc(-c2cc3cc(O)cc(Cl)c3[nH]2)c2c(N)ncnc21 [Compound 15] | – | – | – | – | – | – | < 5 | > 500 | 25 to 50 | 25 to 50 | 25 to 50 | > 500 | –
CC(C)N1CCC(n2nc(-c3cc4c(Cl)ccc(O)c4[nH]3)c3c(N)ncnc32)CC1 [Compound 71] | – | – | – | – | – | – | 50 to 100 | > 500 | > 500 | > 500 | – | > 500 | –

SMILES | IC50 (mTOR; Table 1, read-out: mTOR IC50) [nM] | IC50 (PI3K α; Table 1) [nM] | IC50 (PI3K β; Table 1) [nM] | IC50 (PI3K γ; Table 1) [nM] | IC50 (PI3K δ; Table 1) [nM] | EC50 (PC3) [nM] | IC50 (mTOR; Table 2, read-out: mTORC IC50) [nM] | IC50 (PI3K α; Table 2) [nM] | IC50 (PI3K γ; Table 2) [nM] | IC50 (PI3K δ; Table 2) [nM] | IC50 (PC3) [nM] | IC50 (PI3K β; Table 2) [nM] | IC50 (PI3K δ) [nM]
Nc1ncnc2c1c(-c1cc3cc(O)ccc3[nH]1)nn2C1CCCC1 [Compound 12] | – | – | – | – | – | – | 5 to 10 | > 500 | – | – | 25 to 50 | > 500 | > 500
COc1cccc2cc(-c3nn(C4CCOCC4)c4ncnc(N)c34)[nH]c12 [Compound 63] | – | – | – | – | – | – | < 5 | 100 to 500 | 10 to 25 | 10 to 25 | – | > 500 | –
CN1CCN(C2CC(n3nc(-c4cc5cc(O)ccc5[nH]4)c4c(N)ncnc43)C2)CC1 (stereo not shown) [Compound 52] | – | – | – | – | – | – | 100 to 500 | > 500 | > 500 | 100 to 500 | – | > 500 | –
CC(C)n1nc(-c2cc3cccc(O)c3[nH]2)c2c(N)ncnc21 [Compound 11] | – | – | – | – | – | – | < 5 | > 500 | 100 to 500 | 100 to 500 | 25 to 50 | > 500 | –
Nc1ncnc2c1c(-c1cc3cc(O)cc(Cl)c3[nH]1)nn2C1CCOCC1 [Compound 68] | – | – | – | – | – | – | < 5 | 100 to 500 | 25 to 50 | 10 to 25 | – | > 500 | –
CC(=O)Nc1noc2cc(-c3nn(C(C)C)c4ncnc(N)c34)ccc12 [Compound 11] | < 1000 | – | – | – | – | > 10000 | – | – | – | – | – | – | –
CC(C)n1nc(-c2ccc3c(N)noc3c2)c2c(N)ncnc21 [Compound 12] | < 1000 | – | – | – | – | > 10000 | – | – | – | – | – | – | –
Nc1ncnc2c1c(-c1cc3cc(O)ccc3[nH]1)nn2C1CC(N2CCOCC2)C1 (stereo not shown) [Compound 49] | – | – | – | – | – | – | 5 to 10 | > 500 | 100 to 500 | 100 to 500 | – | > 500 | –
Nc1nc2cc(-c3nn(C4CCC(N5CCOCC5)CC4)c4ncnc(N)c34)ccc2o1 (stereo not shown) [Compound 6] | < 100 | – | > 10000 | – | < 1000 | < 1000 | – | – | – | – | – | – | –
CC(C)n1nc(-c2ccc3onc(N)c3c2)c2c(N)ncnc21 [Compound 10] | < 10000 | – | – | – | – | > 10000 | – | – | – | – | – | – | –
CC(C)n1cc(-c2ccc3oc(N)nc3c2)c2c(N)ncnc21 [Compound 8] | < 100 | < 1000 | > 10000 | < 1000 | < 1000 | < 100 | – | – | – | – | – | – | –
Nc1ncnc2c1c(-c1cc3cc(O)ccc3[nH]1)nn2C1CCC1 [Compound 27] | – | – | – | – | – | – | 10 to 25 | – | – | – | 100 to 500 | – | –
COc1cccc2cc(-c3nn(C4CCN(C(=O)C5CC5)CC4)c4ncnc(N)c34)[nH]c12 [Compound 66] | – | – | – | – | – | – | > 500 | > 500 | > 500 | > 500 | – | > 500 | –
CC(CO)n1nc(-c2ccc3oc(N)nc3c2)c2c(N)ncnc21 (stereo not shown) [Compound 23] | < 100 | < 10000 | > 10000 | < 10000 | < 10000 | – | – | – | – | – | – | – | –
COc1ccc(Cl)c2cc(-c3nn(C4CCOCC4)c4ncnc(N)c34)[nH]c12 [Compound 61] | – | – | – | – | – | – | 10 to 25 | > 500 | > 500 | > 500 | – | > 500 | –
Nc1ncnc2c1c(-c1cc3cccc(O)c3[nH]1)nn2C1CCN(C(=O)C2CC2)CC1 [Compound 41] | – | – | – | – | – | – | 5 to 10 | > 500 | 25 to 50 | > 500 | – | > 500 | –
